Experimental data reported in patent publication US20200239530A1, “COMPOUNDS AND METHODS OF MODULATING PROTEIN DEGRADATION” (Vividion Therapeutics, Inc., priority 2017, published 2020).
Like-named read-outs stand apart in the source and are kept apart here.

Assays:
Assay in all cases: Cysteine liganding, probe competition
Format in all cases: binding
UniProt Q5W0B1 = target: T1, UniProt Q5W0B1 (Homo sapiens, UniProt Q5W0B1)
T1 construct: 200 μL of lysate containing 5 mg/ml proteome was treated with 2 μL of 100× compound stock; endogenous in cells
T1 sequence (Q5W0B1 1-726): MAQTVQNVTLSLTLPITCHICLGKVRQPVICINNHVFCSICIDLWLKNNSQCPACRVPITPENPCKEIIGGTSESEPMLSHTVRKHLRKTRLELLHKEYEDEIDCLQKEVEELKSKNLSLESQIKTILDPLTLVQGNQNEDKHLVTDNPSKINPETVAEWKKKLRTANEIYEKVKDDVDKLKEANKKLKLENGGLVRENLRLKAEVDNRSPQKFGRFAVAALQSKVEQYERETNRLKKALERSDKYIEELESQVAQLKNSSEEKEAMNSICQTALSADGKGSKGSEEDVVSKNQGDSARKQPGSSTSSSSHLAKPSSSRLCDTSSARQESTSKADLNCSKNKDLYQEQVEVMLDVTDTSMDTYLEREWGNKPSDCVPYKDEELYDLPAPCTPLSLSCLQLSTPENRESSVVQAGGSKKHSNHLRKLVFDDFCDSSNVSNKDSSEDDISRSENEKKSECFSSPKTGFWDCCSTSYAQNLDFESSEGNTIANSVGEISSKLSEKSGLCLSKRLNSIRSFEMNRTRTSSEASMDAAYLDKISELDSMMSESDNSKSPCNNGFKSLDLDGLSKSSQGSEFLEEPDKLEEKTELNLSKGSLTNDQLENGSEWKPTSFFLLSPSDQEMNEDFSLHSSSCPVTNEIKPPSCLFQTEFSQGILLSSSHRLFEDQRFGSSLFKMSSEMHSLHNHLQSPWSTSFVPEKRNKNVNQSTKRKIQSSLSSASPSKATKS
From the text: (§1) The following 96-well sample prep protocol was used for sample preparation.

UniProt Q8WV44 = target: T2, UniProt Q8WV44 (Homo sapiens, UniProt Q8WV44)
T2 construct: 200 μL of lysate containing 5 mg/ml proteome was treated with 2 μL of 100× compound stock; endogenous in cells
T2 sequence (Q8WV44 1-630): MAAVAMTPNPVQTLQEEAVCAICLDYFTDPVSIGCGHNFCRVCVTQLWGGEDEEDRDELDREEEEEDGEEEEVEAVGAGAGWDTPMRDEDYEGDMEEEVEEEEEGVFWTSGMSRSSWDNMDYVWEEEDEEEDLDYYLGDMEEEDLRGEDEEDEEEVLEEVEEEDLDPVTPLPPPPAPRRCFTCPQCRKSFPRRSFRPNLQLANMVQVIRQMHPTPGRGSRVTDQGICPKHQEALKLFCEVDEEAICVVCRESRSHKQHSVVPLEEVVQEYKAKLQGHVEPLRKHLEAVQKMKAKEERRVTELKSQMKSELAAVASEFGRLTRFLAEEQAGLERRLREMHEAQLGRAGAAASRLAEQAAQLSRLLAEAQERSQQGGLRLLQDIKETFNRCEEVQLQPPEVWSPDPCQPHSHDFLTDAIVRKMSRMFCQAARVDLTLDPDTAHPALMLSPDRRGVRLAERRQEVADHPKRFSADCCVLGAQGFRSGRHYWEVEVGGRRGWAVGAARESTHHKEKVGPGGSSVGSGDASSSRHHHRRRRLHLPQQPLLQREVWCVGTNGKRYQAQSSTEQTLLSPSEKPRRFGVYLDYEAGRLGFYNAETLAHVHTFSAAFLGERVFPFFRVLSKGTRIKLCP
From the text: as §1

UniProt Q9Y252 = target: T3, UniProt Q9Y252 (Homo sapiens, UniProt Q9Y252); settings: for inhibition at 500 µM: read-out: percent_inhibition
T3 construct: 200 μL of lysate containing 5 mg/ml proteome was treated with 2 μL of 100× compound stock; endogenous in cells
T3 sequence (Q9Y252 1-685): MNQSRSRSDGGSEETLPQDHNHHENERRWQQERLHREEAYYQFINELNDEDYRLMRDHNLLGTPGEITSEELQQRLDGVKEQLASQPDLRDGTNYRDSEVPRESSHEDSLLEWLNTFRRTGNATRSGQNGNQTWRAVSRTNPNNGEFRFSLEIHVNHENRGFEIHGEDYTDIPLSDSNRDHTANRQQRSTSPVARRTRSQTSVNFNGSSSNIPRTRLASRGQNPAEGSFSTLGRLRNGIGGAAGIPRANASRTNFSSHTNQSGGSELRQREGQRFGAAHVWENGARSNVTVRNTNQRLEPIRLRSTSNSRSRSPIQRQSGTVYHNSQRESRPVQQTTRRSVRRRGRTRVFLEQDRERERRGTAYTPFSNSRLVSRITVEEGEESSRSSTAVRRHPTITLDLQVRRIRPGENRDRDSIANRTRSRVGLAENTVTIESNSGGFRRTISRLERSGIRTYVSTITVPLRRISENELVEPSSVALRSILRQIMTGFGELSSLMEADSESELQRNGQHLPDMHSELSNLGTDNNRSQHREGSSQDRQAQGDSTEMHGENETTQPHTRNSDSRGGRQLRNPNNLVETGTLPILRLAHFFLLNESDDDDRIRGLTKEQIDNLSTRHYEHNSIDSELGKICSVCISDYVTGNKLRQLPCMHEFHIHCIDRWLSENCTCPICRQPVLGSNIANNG
From the text: as §1

UniProt O60260 = target: T4, UniProt O60260 (Homo sapiens, UniProt O60260)
T4 construct: 200 μL of lysate containing 5 mg/ml proteome was treated with 2 μL of 100× compound stock; endogenous in cells
T4 sequence (O60260 1-465): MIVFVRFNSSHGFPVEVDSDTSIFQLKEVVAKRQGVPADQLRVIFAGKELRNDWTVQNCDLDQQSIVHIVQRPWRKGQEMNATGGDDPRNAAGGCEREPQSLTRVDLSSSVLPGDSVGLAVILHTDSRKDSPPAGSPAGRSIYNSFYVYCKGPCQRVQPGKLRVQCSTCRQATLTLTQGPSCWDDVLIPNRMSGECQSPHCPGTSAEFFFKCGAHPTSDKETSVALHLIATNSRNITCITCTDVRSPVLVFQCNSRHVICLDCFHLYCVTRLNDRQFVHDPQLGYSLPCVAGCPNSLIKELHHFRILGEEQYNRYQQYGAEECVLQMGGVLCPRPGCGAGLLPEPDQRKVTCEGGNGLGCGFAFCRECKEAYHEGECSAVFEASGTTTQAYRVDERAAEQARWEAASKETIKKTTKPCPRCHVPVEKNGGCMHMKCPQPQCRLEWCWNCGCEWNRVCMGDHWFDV
From the text: as §1

[1] = 500 uM, read-out: percent_inhibition

Row | inhibition at 500 µM (UniProt Q8WV44; 500 uM, read-out: KB05_500 uM_percent_inhibition) | inhibition at 500 µM (UniProt O60260; read-out: KB05_500 uM_percent_inhibition) | SMILES | inhibition at 500 µM (UniProt Q5W0B1; [1]) | inhibition at 500 µM (UniProt Q9Y252) | inhibition at 100 µM (UniProt Q5W0B1; 100 uM, read-out: percent_inhibition) | inhibition at 100 µM (UniProt Q8WV44; 100 uM, read-out: KB02_100 uM_percent_inhibition) | inhibition at 500 µM (UniProt O60260; read-out: KB02_500 uM_percent_inhibition) | percent_inhibition (UniProt Q5W0B1; 500 uM) | KB03_100 uM_percent_inhibition (UniProt Q8WV44; 100 uM) | percent_inhibition (UniProt Q9Y252; 500 uM) | KB03_500 uM_percent_inhibition (UniProt O60260; 500 uM)
1 | 50% | 93% | C=CC(=O)N(c1ccccc1)c1ccc(Br)cc1 [KB05] | 48% | 51% |  |  |  |  |  |  | 
2 |  |  | COc1ccc2c(c1)CCCN2C(=O)CCl [KB02] | 54% | 38% | 17% | 15% | 92% |  |  |  | 
3 |  |  | O=C(CCl)Nc1cc(C(F)(F)F)cc(C(F)(F)F)c1 [KBO3] |  |  |  |  |  | 28% | 31% | 9% | 91%
